Assay results published in US20260262643A1, “HERBICIDAL BENZOXAZINES” (FMC CORPORATION, priority 2022, published 2026).
Where two headings read alike, the source gives them in different places.

Key:
corn [1] = assay: Test A preemergence; assay type: in vivo, Zea mays; details: Zea mays, pre-emergence, 240 h; for Corn plant response rating (crop injury, 0 = no effect, 100 = complete kill) at 125 g/ha: 125 g ai/ha, visual injury after 10 days, 0 to 100 scale, 0 is no effect, 100 is complete control; for Corn plant response rating (crop injury, 0 = no effect, 100 = complete kill) at 500 g/ha: 500 g ai/ha, 0 to 100 scale (0 no effect, 100 complete control), 10 days
Outline: (§1)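 Loam/sand soil; pre-em directed soil spray at planting, post-em spray at 1–2 leaf (2–10 cm). Compound in non-phytotoxic solvent + surfactant. Greenhouse 10 d; visual injury vs untreated, 0 = no effect, 100 = complete control.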

foxtail, giant [2] = assay: Test A preemergence; assay type: in vivo, Setaria faberi; details: Setaria faberi, pre-emergence, 240 h, read-out: Plant response rating, Foxtail, Giant; for pest or weed control at 125 g/ha: 125 g ai/ha, visual injury after 10 days, 0 to 100 scale, 0 is no effect, 100 is complete control; for pest or weed control at 500 g/ha: 500 g ai/ha, 0 to 100 scale (0 no effect, 100 complete control), 10 days
Outline: as §1

pigweed, palmer [3] = assay: Test A preemergence; assay type: in vivo, Amaranthus palmeri; details: Amaranthus palmeri, pre-emergence, 240 h, read-out: Plant response rating, Pigweed, Palmer; for pest or weed control at 125 g/ha: 125 g ai/ha, visual injury after 10 days, 0 to 100 scale, 0 is no effect, 100 is complete control; for pest or weed control at 500 g/ha: 500 g ai/ha, 0 to 100 scale (0 no effect, 100 complete control), 10 days
Outline: as §1

ragweed [4] = assay: Test A preemergence; assay type: in vivo, Ambrosia artemisiifolia; details: Ambrosia artemisiifolia, pre-emergence, 240 h, read-out: Plant response rating, Ragweed; for pest or weed control at 125 g/ha: 125 g ai/ha, visual injury after 10 days, 0 to 100 scale, 0 is no effect, 100 is complete control; for pest or weed control at 500 g/ha: 500 g ai/ha, 0 to 100 scale (0 no effect, 100 complete control), 10 days
Outline: as §1

ryegrass, Italian = assay: Test A preemergence; assay type: in vivo, Lolium multiflorum; details: Lolium multiflorum, pre-emergence, 240 h, read-out: Plant response rating, Ryegrass, Italian; for pest or weed control at 125 g/ha: 125 g ai/ha, visual injury after 10 days, 0 to 100 scale, 0 is no effect, 100 is complete control; for pest or weed control at 500 g/ha: 500 g ai/ha, 0 to 100 scale (0 no effect, 100 complete control), 10 days
Outline: as §1

wheat = assay: Test A preemergence; assay type: in vivo, Triticum aestivum; details: Triticum aestivum, pre-emergence, 240 h, read-out: Plant response rating, Wheat; for plant injury at 125 g/ha: 125 g ai/ha, visual injury after 10 days, 0 to 100 scale, 0 is no effect, 100 is complete control; for plant injury at 500 g/ha: 500 g ai/ha, 0 to 100 scale (0 no effect, 100 complete control), 10 days
Outline: as §1

corn [5] = assay: Test A postemergence; assay type: in vivo, Zea mays; details: Zea mays, post-emergence, 240 h, postemergence, 10 days, 0 to 100 scale (0 no effect, 100 complete control); for Corn plant response rating (crop injury, 0 = no effect, 100 = complete kill) at 500 g/ha: 500 g ai/ha
Outline: as §1

foxtail, giant [6] = assay: Test A postemergence; assay type: in vivo, Setaria faberi; details: Setaria faberi, post-emergence, 240 h, postemergence, 10 days, 0 to 100 scale (0 no effect, 100 complete control); for pest or weed control at 125 g/ha: 125 g ai/ha; for pest or weed control at 500 g/ha: 500 g ai/ha
Outline: as §1

kochia = assay: Test A postemergence; assay type: in vivo, Bassia scoparia; details: Bassia scoparia, post-emergence, 240 h, postemergence, 10 days, 0 to 100 scale (0 no effect, 100 complete control); for pest or weed control at 125 g/ha: 125 g ai/ha; for pest or weed control at 500 g/ha: 500 g ai/ha
Outline: as §1

pigweed, palmer [7] = assay: Test A postemergence; assay type: in vivo, Amaranthus palmeri; details: Amaranthus palmeri, post-emergence, 240 h, postemergence, 10 days, 0 to 100 scale (0 no effect, 100 complete control); for pest or weed control at 500 g/ha: 500 g ai/ha, visual injury, read-out: Plant response rating, Pigweed, Palmer
Outline: as §1

ragweed [8] = assay: Test A postemergence; assay type: in vivo, Ambrosia artemisiifolia; details: Ambrosia artemisiifolia, post-emergence, 240 h, postemergence, 10 days, 0 to 100 scale (0 no effect, 100 complete control); for pest or weed control at 500 g/ha: 500 g ai/ha, visual injury, read-out: Plant response rating, Ragweed
Outline: as §1

soybean = assay: Test A postemergence; assay type: in vivo, Glycine max; details: Glycine max, post-emergence, 240 h, postemergence, 10 days, 0 to 100 scale (0 no effect, 100 complete control); for plant injury at 500 g/ha: 500 g ai/ha, visual injury, read-out: Plant response rating, Soybean
Outline: as §1

horseweed = assay: Test A postemergence; assay type: in vivo, Erigeron canadensis; details: Erigeron canadensis, post-emergence, 240 h, postemergence, 10 days, 0 to 100 scale (0 no effect, 100 complete control); for pest or weed control at 125 g/ha: 125 g ai/ha; for pest or weed control at 500 g/ha: 500 g ai/ha
Outline: as §1

barnyardgrass = assay: Test B flooded paddy test; assay type: in vivo, Echinochloa crus-galli; details: Echinochloa crus-galli, 312 h, 250 g ai/ha, Flood, 13 days, 0 to 100 scale (0 no effect, 100 complete control); read-out: Plant response rating, Barnyardgrass
Outline: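 Flooded to 3 cm at treatment time, 2-leaf plants got the test compound applied straight into the paddy water. They then stayed under constant flood in a greenhouse for 13 days. Ratings used a 0 to 100 visual scale.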

[9] = visual injury, read-out: Plant response rating, Foxtail, Giant
[10] = visual injury, read-out: Plant response rating, Kochia
[11] = visual injury, read-out: Plant response rating, Horseweed

Row | SMILES | Corn plant response rating (crop injury, 0 = no effect, 100 = complete kill) at 125 g/ha (corn [1]) [%] | Corn plant response rating (crop injury, 0 = no effect, 100 = complete kill) at 500 g/ha (corn [1]) [%] | pest or weed control at 125 g/ha (foxtail, giant [2]) [%] | pest or weed control at 500 g/ha (foxtail, giant [2]) [%] | pest or weed control at 125 g/ha (pigweed, palmer [3]) [%] | pest or weed control at 500 g/ha (pigweed, palmer [3]) [%] | pest or weed control at 125 g/ha (ragweed [4]) [%] | pest or weed control at 500 g/ha (ragweed [4]) [%] | pest or weed control at 125 g/ha (ryegrass, Italian) [%] | pest or weed control at 500 g/ha (ryegrass, Italian) [%] | plant injury at 125 g/ha (wheat) [%] | plant injury at 500 g/ha (wheat) [%] | Corn plant response rating (crop injury, 0 = no effect, 100 = complete kill) at 500 g/ha (corn [5]; visual injury) [%] | pest or weed control at 500 g/ha (foxtail, giant [6]; [9]) [%] | pest or weed control at 500 g/ha (kochia; [10]) [%] | pest or weed control at 500 g/ha (pigweed, palmer [7]) [%] | pest or weed control at 500 g/ha (ragweed [8]) [%] | plant injury at 500 g/ha (soybean) [%] | pest or weed control at 500 g/ha (horseweed; [11]) [%] | pest or weed control at 250 g/ha (barnyardgrass) [%] | further results
1 | Cc1cccc2c1O[C@@H](C)CN2C(=O)c1cccc(-n2cnc(C3CCCC3)n2)c1 [Compound 80, [3-(3-Cyclopentyl-1H-1,2,4-triazol-1-yl)phenyl][(2S)-2,3-dihydro-2,8-dimethyl-4H-1,4-benzoxazin-4-yl]methanone] | 0 | 20 | 20 | 80 | 10 | 80 | 0 | 0 | 90 | 100 | 0 | 10 | 20 | 50 | 70 | 70 | 60 | 100 | 0 | 0 | plant injury at 125 g/ha (corn [5]; 125 g ai/ha, read-out: Corn plant response rating): 10%; pest or weed control at 125 g/ha (foxtail, giant [6]; read-out: Foxtail, Giant plant response rating): 10%; pest or weed control at 125 g/ha (kochia; read-out: Kochia plant response rating): 40%; pest or weed control at 125 g/ha (pigweed, palmer [7]; 125 g ai/ha, read-out: Pigweed, Palmer plant response rating): 30%; pest or weed control at 125 g/ha (ragweed [8]; 125 g ai/ha, read-out: Ragweed plant response rating): 40%; plant injury at 125 g/ha (soybean; 125 g ai/ha, read-out: Soybean plant response rating): 70%; pest or weed control at 125 g/ha (horseweed; read-out: Horseweed plant response rating): 0%
2 | Cc1ccc(-n2cnc(C(C)(C)C)n2)cc1C(=O)N1C[C@H](C)Oc2c(Cl)cccc21 [Compound 76, [(2S)-8-Chloro-2,3-dihydro-2-methyl-4H-1,4-benzoxazin-4-yl][5-[3-(1,1-dimethylethyl)-1H-1,2,4-triazol-1-yl]-2-methylphenyl]methanone] | 40 | 50 | 90 | 100 | 100 | 100 | 30 | 30 | 100 | 100 | 60 | 90 | 60 | 90 | 90 | 100 | 60 | 100 | 80 | 25 | Corn plant response rating (crop injury, 0 = no effect, 100 = complete kill) at 125 g/ha (corn [5]; 125 g ai/ha, visual injury): 60%; pest or weed control at 125 g/ha (foxtail, giant [6]; [9]): 90%; pest or weed control at 125 g/ha (kochia; [10]): 90%; pest or weed control at 125 g/ha (horseweed; [11]): 70%
